Experiments:
carcinomas = settings: delivered with pH sensitive hydrogels; cited from earlier work
tumor = settings: delivered by thermosensitive, biodegradable hydrogels; gradual release, local delivery to tumor site; cited from earlier work
[1] = Net charge and isoelectric point of peptide; type: physicochemical; settings: pH 7
Source text: The peptide may be purified. For example, the peptide may be lyophilized. […] Other peptides are within the scope of the disclosure.
Exemplary peptides having a charge of +5 to +9 include […](d)[…], […] (d)[…], and […] (d)[…]. In other embodiments, the purified peptide may be substantially neutral. […] Net charge may be selected by peptide design. Design of electrostatic charge in the peptide hydrogel may allow control of charge interaction with cell membrane and proteins.

Molecule	tumor size compared to systemic delivery (carcinomas)	other results
O=c1[nH]cc(F)c(=O)[nH]1 [5-fluorouracil]	significant decrease in tumor size	–
COc1cccc2c1C(=O)c1c(O)c3c(c(O)c1C2=O)C[C@@](O)(C(=O)CO)C[C@@H]3O[C@H]1C[C@H](N)[C@H](O)[C@H](C)O1 [DOX, Doxorubicin]	–	treatment outcomes compared to systemic treatment modalities (tumor): improved treatment outcomes
CN(C)C(=N)N=C(N)N [metformin]	significant decrease in tumor size	–
VEVSVSVEVdPPTEVSVEVEV-NH2	–	net charge [1]: net negative charge
